{"source": "patent US20040198770A1", "about": "“Uses for l-tetrahydropalmatine” (PharmacoGenetics Limited, priority 2003, published 2004)", "assay_type_in_all_cases": "in vivo", "key": {"[1]": {"test_system": "ICR mice", "assay": "Horizontal-wire test", "conditions": "Table 2, mice, 60 s", "procedure": "(§1) ICR mice of male sex, weighing 15.6-17.8 g were used, provided by Experimental Animal Centre of HKUST, housed in groups, given food and water ad libitum and maintained on a 12 hour light: 12 hour dark cycle. All of the experimental groups had 12 animals per group.\n(§2) For each experimental animal, administered orally 0.2 ml (pH 7.2) of respective solvent at concentrations as stated above for each group (or double-distilled water for normal control group) one hour before testing.\nMice are lifted by the tail and allowed to grasp a horizontally strung wire (1 mm diameter, 20 cm long and placed 20 cm above the table) with their forepaws and released (Bonetti E. P. et al., Psychopharmacology (Berl). 1982; 78(1): 8-18; PMID: 6292984). For each experimental animal, the number of falling onto the table in 60 seconds was determined.\nThere is no significant difference between same dosage l-THP and dl-THP groups."}, "[2]": {"test_system": "ICR mice", "assay": "Elevated plus-maze test", "conditions": "mice", "procedure": "as §1, §2\nThe elevated plus-maze is made of 0.5 cm thick wood as a horizontal cross consisting of two open arms (25×5 cm) and two opposite arms (25×5 cm) enclosed by 10 cm high walls. The arms extend from a central platform having dimensions of 5×5 cm. The plus-maze is elevated to a height of 40 cm from the floor. The maze is put inside a box with dimensions of 30×30×50 cm. The mice are placed on the central platform of the maze facing a closed arm. The number of arm entries and the time spent in the open and closed arm are counted for 300 seconds (Pellow S. et al., “Anxiolytic and anxiogenic drug effects on exploratory activity in an elevated plus-maze: a novel test of anxiety in the rat”, Pharmacol Biochem Behav. 1986 March; 24(3): 525-9; PMID: 2871560). Arm entry was defined as one half body entered into the arm."}, "[3]": {"test_system": "ICR mice", "assay": "Hole-board test", "conditions": "300 s", "procedure": "as §1, §2\nThe hole-board apparatus is a 0.5 cm thick walled wood arena of 60×60×30 cm, with four 5 cm equidistant 4 cm diameter holes spaced on the floor. The mice are placed on the centre of the arena and the number of head-dip on the hole and the number of rearing are counted during a 300 second test period (File S. E. et al., “The effects of triazolobenzo-diazepines in two animal tests of anxiety and in the holeboard.”, Br J Pharmacol. 1985 November; 86(3): 729-35; PMID: 2866006). After each trial, the floor of the apparatus was wiped and dried thoroughly with tissue to remove traces of the previous path."}}}
{"smiles": "COc1cc2c(cc1OC)C1Cc3ccc(OC)c(OC)c3CN1CC2", "note": "(racemic) [dl-THP, 5,8,18,13a-tetrahydro-2,3,9,10-tetramethoxy-6H-dibenzo [a,q] quinolizine, reference compound]", "values": [{"measurement": "Number of falling", "setting": "[1]; oral 0.5 mg/kg", "result": "0.30 ± 0.48"}, {"measurement": "Number of falling", "setting": "[1]; oral 1.0 mg/kg", "result": "0.50 ± 0.67"}, {"measurement": "Number of falling", "setting": "[1]; oral 5.0 mg/kg", "result": "0.40 ± 0.49"}, {"measurement": "Number of falling", "setting": "[1]; oral 10 mg/kg", "result": "0.80 ± 0.64"}, {"measurement": "Number of falling", "setting": "[1]; oral 30 mg/kg", "result": "21.60 ± 8.72"}, {"measurement": "most medicinal dosage (time spent and percentage of open arm entry)", "setting": "[2]; oral", "result": 5, "unit": "mg/kg"}, {"measurement": "Open arm entry %", "setting": "[2]; oral 0.1 mg/kg, 300 s", "result": "30.58 ± 5.83", "unit": "%"}, {"measurement": "Open arm entry No.", "setting": "[2]; oral 0.1 mg/kg, 300 s", "result": "8.77 ± 1.88"}, {"measurement": "Total no. of arm entries", "setting": "[2]; oral 0.1 mg/kg, 300 s", "result": "28.92 ± 4.73"}, {"measurement": "Open arm entry %", "setting": "[2]; oral 0.5 mg/kg, 300 s", "result": "43.13 ± 4.17", "unit": "%"}, {"measurement": "Open arm entry No.", "setting": "[2]; oral 0.5 mg/kg, 300 s", "result": "13.15 ± 3.33"}, {"measurement": "Total no. of arm entries", "setting": "[2]; oral 0.5 mg/kg, 300 s", "result": "30.25 ± 5.55"}, {"measurement": "Open arm Time spent", "setting": "[2]; oral 0.5 mg/kg, 300 s test", "result": "80.42 ± 15.23"}, {"measurement": "Open arm time spent %", "setting": "[2]; oral 0.5 mg/kg, 300 s test", "result": "29.25 ± 5.10", "unit": "%"}, {"measurement": "Open arm entry %", "setting": "[2]; oral 1.0 mg/kg, 300 s", "result": "51.17 ± 5.48", "unit": "%"}, {"measurement": "Open arm entry No.", "setting": "[2]; oral 1.0 mg/kg, 300 s", "result": "16.00 ± 3.13"}, {"measurement": "Total no. of arm entries", "setting": "[2]; oral 1.0 mg/kg, 300 s", "result": "31.20 ± 4.16"}, {"measurement": "Open arm Time spent", "setting": "[2]; oral 1.0 mg/kg, 300 s test", "result": "88.40 ± 17.37"}, {"measurement": "Open arm time spent %", "setting": "[2]; oral 1.0 mg/kg, 300 s test", "result": "29.95 ± 5.31", "unit": "%"}, {"measurement": "hypnotic effect / inhibition of the nervous system", "setting": "[2]; oral 5 mg/kg", "result": "does not induce a hypnotic effect or inhibit the nervous system"}, {"measurement": "Open arm entry %", "setting": "[2]; oral 5.0 mg/kg, 300 s", "result": "50.21 ± 4.04", "unit": "%"}, {"measurement": "Open arm entry No.", "setting": "[2]; oral 5.0 mg/kg, 300 s", "result": "15.23 ± 3.19"}, {"measurement": "Total no. of arm entries", "setting": "[2]; oral 5.0 mg/kg, 300 s", "result": "30.15 ± 4.83"}, {"measurement": "Open arm Time spent", "setting": "[2]; oral 5.0 mg/kg, 300 s test", "result": "95.00 ± 23.56"}, {"measurement": "Open arm time spent %", "setting": "[2]; oral 5.0 mg/kg, 300 s test", "result": "32.79 ± 8.60", "unit": "%"}, {"measurement": "Head-dip No.", "setting": "[3]; oral 0.1 mg/kg", "result": "13.42 ± 12.06"}, {"measurement": "Rearing No.", "setting": "[3]; oral 0.1 mg/kg", "result": "22.17 ± 12.76"}, {"measurement": "Total No. (head-dip and rearing)", "setting": "[3]; oral 0.1 mg/kg", "result": "35.58 ± 16.47"}, {"measurement": "Head-dip No.", "setting": "[3]; oral 0.5 mg/kg", "result": "17.67 ± 11.14"}, {"measurement": "Rearing No.", "setting": "[3]; oral 0.5 mg/kg", "result": "26.50 ± 10.06"}, {"measurement": "Total No. (head-dip and rearing)", "setting": "[3]; oral 0.5 mg/kg", "result": "44.17 ± 13.53"}, {"measurement": "Head-dip No.", "setting": "[3]; oral 1.0 mg/kg", "result": "13.20 ± 10.64"}, {"measurement": "Rearing No.", "setting": "[3]; oral 1.0 mg/kg", "result": "20.40 ± 15.74"}, {"measurement": "Total No. (head-dip and rearing)", "setting": "[3]; oral 1.0 mg/kg", "result": "33.60 ± 20.37"}, {"measurement": "Head-dip No.", "setting": "[3]; oral 5.0 mg/kg", "result": "11.08 ± 6.34"}, {"measurement": "Rearing No.", "setting": "[3]; oral 5.0 mg/kg", "result": "26.39 ± 12.28"}, {"measurement": "Total No. (head-dip and rearing)", "setting": "[3]; oral 5.0 mg/kg", "result": "37.46 ± 15.95"}]}
{"smiles": "CN1C(=O)CN=C(c2ccccc2)c2cc(Cl)ccc21", "note": "[DZ, Diazepam, reference compound]", "values": [{"measurement": "Closed arm entry %", "setting": "[2]; oral 1.0 mg/kg, 300 s", "result": "44.58 ± 4.10", "unit": "%"}, {"measurement": "Closed arm entry No.", "setting": "[2]; oral 1.0 mg/kg, 300 s", "result": "16.75 ± 3.26"}, {"measurement": "Total no. of arm entries", "setting": "[2]; oral 1.0 mg/kg, 300 s", "result": "38.25 ± 7.06"}, {"measurement": "Closed arm Time spent", "setting": "[2]; oral 1.0 mg/kg, 300 s test", "result": "159.29 ± 14.18"}, {"measurement": "Closed arm time spent %", "setting": "[2]; oral 1.0 mg/kg, 300 s test", "result": "54.81 ± 4.53", "unit": "%"}, {"measurement": "Open arm time spent %", "setting": "[2]; oral 1.0 mg/kg, 300 s test, 1 mg/kg", "result": "45.19 ± 4.53", "unit": "%"}, {"measurement": "Open arm entry %", "setting": "[2]; oral 1.0 mg/kg, 300 s, 1 mg/kg", "result": "55.42 ± 4.10", "unit": "%"}, {"measurement": "Rearing No.", "setting": "[3]; oral 1.0 mg/kg", "result": "26.38 ± 8.51"}, {"measurement": "Total No. (head-dip and rearing)", "setting": "[3]; oral 1.0 mg/kg", "result": "42.00 ± 7.11"}]}
